Measured values from US9744221B2, “Method and compositions for inhibiting or preventing adverse effects of oral antibiotics” (Synthetic Biologics, Inc., priority 2014, dated 2017).

How the values were obtained:
intestinal microbiome = assay: Fecal microbiome whole genome shotgun sequencing in piglets given oral amoxicillin with or without SYN-004 (Example 1); type: in vivo, Yorkshire piglets; conditions: Day -7 to Day 9, FIGS. 3 and 4
in vivo = conditions: Yorkshire, pig, po, 20 mg/kg

- concentration at 1 h (in vivo): 8900 ± 800 ng/mL
- concentration at 3 h (in vivo): 3900 ± 300 ng/mL
- concentration at 8 h (in vivo): 1500 ± 300 ng/mL
SMILES: CC1(C)S[C@@H]2[C@H](NC(=O)[C@H](N)c3ccc(O)cc3)C(=O)N2[C@H]1C(=O)O [amoxicillin, Amoxicillin]
- diversity of the microbiome (median percent similarity of strain relative abundance) (intestinal microbiome): continued to lose diversity throughout the duration of the study
